# Source: US3944549A, “Amino derivatives of 1,4-benzodioxan” (priority 1972, dated 1976)
# “Also recorded” adds a separate entry of the source. Structures can show the parent of a compound that is named as a salt.
# Experiments:
# adrenergic receptors = assay: α-blocking action: reversal of the hypertensive effect of adrenalin; format: in vivo, dogs; conditions: for α-blocking / α-lytic action: conclusion or summary; for hypertensive effects of adrenalin: orally; for dose from which the product is α-blocking (adrenolytic): intravenously
# vertebral artery = assay: Vasodilating properties: injection into the vertebral artery in dogs; format: in vivo; conditions: for decrease in arterial pressure: injection into vertebral artery
# Experimental: On injection into the vertebral artery, no effect is observed at doses of less than 1 mg/kg. At a dose of 10 mg/kg, the flow rate increases by 37% and at a dose of 20 mg/kg it only increases by 27%. At these two doses, the arterial pressure decreases respectively by 14 and 28% although no effect had been observed during the injection into the femoral artery.
# coronary flow rate = assay: Coronary flow rate and cardiac parameters in anaesthetised dogs, intravenous perfusion; format: in vivo
# Experimental: (§1) During the series of pharmacological tests, the following parameters were used:
# (§2) Cardiac work: this parameter (expressed in kgm/min.) is calculated according to the relationship: Cardiac work = average AP (mm Hg) × 1.36 = cardiac output (1/min.) × 10^-^3.
# (§3) Ratio dp/dt: this parameter corresponds to the variation in pressure expressed in mm Hg per second (in English: Rate of rise of left ventricular pressure).
# (§4) The technique used to measure the ratio dp/dt is as follows:
# (§5) The cardiac output is determined in Beagle dogs weighing 10 to 15 kg, anesthetised with pentobarbital, by injecting Carbiogreen (1 mg in 0.5 ml) into the right ventricle. A catheter introduced via the carotid artery into the aorta makes it possible to aspirate arterial blood at the rate of 25 ml/min. and to pass it in front of the photoelectric cell of a Beckman cardiodensitometer. The results are interpreted in accordance with the Hamilton method.
# [1] = tested on: vertebral, femoral and mesenteric artery flow rates; assay: Vasodilating and cardiovascular properties on intravenous administration in dogs; conditions: for increase in vertebral flow rate: 0.5 mg/kg i.v.
# Experimental: as §1
# Arterial pressure (abbreviated to AP): this parameter, expressed in mm Hg) is evaluated in accordance with the usual conditions.
# Arterial resistance: this parameter (expressed in dynes/sec./cm^-^5) is calculated according to the ratio [formula] Cardiac index: this parameter is expressed in (ml/min.)/kg. Systolic index: this parameter is equal to the ratio cardiac index/frequency.
# as §2, §3, §4, §5
# (§6) In the case of intravenous administration, the tests were carried out on 4 anaesthetised dogs. The product is perfused intravenously over the course of 5 minutes at doses of 2.5, 5 and 10 mg/kg and, in one test, is administered intraduodenally at a dose of 10 mg/kg.
# man = assay: Clinical studies in man; format: in vivo
# Excerpt: In clinical studies, good results were obtained in man by administering tablets such as: […]
# [2] = Acute toxicity, intravenous, in mice; conditions: mouse, in vivo; for LD50: read-out: LD-50 I.V. in mice; for NOAEL: read-out: Maximum non-toxic dose
# [3] = tested on: acetylcholine, isoprenalin, peripheral vagus; assay: Effect on responses to acetylcholine, isoprenalin and stimulation of the peripheral vagus in dogs; conditions: dog, in vivo
# femoral artery = assay: Vasodilating properties: injection into the femoral artery in dogs; format: in vivo; conditions: for increase in flow rate of the femoral artery: injection into femoral artery
# Experimental: On injection into the femoral artery, no effect is observed at doses of less than 100 μg/kg. […] At these doses, no effect is observed on the arterial pressure AP measured in accordance with the usual conditions.
# When administered intra-arterially, the product of Example 6 is injected directly into the femoral artery. The flow rate is increased by 200% from a dose of 10 μg.
# intestinal barrier = assay: Intraduodenal administration in dogs: cardiovascular effects and passage through the intestinal barrier; format: in vivo; conditions: for passage through the intestinal barrier: dogs
# Experimental: as §6
# [4] = Analgesic activity, subcutaneous; format: in vivo; conditions: injected subcutaneously
# [5] = tested on: femoral artery, vertebral artery; assay: Flow rates of femoral and vertebral arteries after oral administration in dogs; format: in vivo
# [6] = third test, 0.5, 1, 2 and 4 mg/kg i.v. without stopping
# [7] = injected locally into the femoral or vertebral artery
# [8] = 4 anaesthetised dogs, 2.5, 5 and 10 mg/kg i.v.
# [9] = anaesthetised dogs (Nembutal), 2.5 mg/kg i.v. over 5 minutes
smiles,measurement,setting,value
"OCCN1CCN(CC2COc3ccccc3O2)CC1 (stereo not shown) [Example 2, 1-[2-(1,4-Benzodioxanyl)-methyl]-4-(2-hydroxyethyl)-piperazine hemifumarate]",α-blocking / α-lytic action,adrenergic receptors,acts as an α-lytic product
same,hypertensive effect of adrenalin,adrenergic receptors; dogs,reverses the hypertensive effect of adrenalin in a lasting manner
same,hypertensive effects of adrenalin,"adrenergic receptors; dogs, 5 mg/kg",decreases the said effects
same,hypertensive effects of adrenalin,"adrenergic receptors; dogs, 7 mg/kg",inhibits them strongly
same,hypertensive effects of adrenalin,"adrenergic receptors; dogs, 10 mg/kg",overcomes the α + effect of adrenalin
same,effect on injection into the vertebral artery,vertebral artery; doses of less than 1 mg/kg,no effect
same,decrease in arterial pressure,vertebral artery; 10 mg/kg,14%
same,decrease in arterial pressure,vertebral artery; 20 mg/kg,28%
same,cardiac work,coronary flow rate; 5 mg/kg i.v.,an increase in the cardiac work
same,duration of increase in maximum intraventricular pressure,coronary flow rate; 5 mg/kg i.v.,1 h
same,duration of increase in ratio dp/dt,coronary flow rate; 5 mg/kg i.v.,more than 1 hour
same,duration of increase in the differential arterial pressure,coronary flow rate; 5 mg/kg i.v.,1 h
same,duration of tachycardia,coronary flow rate; 5 mg/kg i.v.,more than 2 hours
same,time of maximum effect on coronary flow rate,coronary flow rate; 5 mg/kg i.v.,1 h
same,duration of hypotension,"coronary flow rate; 5 mg/kg i.v., can last",more than 2 hours
same,cardiac work,coronary flow rate; summary,increases the cardiac work
same,coronary irrigation,coronary flow rate; summary,increases the coronary irrigation
same,duration of increase in flow rate of the vertebral artery,"[1]; another test, 2 mg/kg i.v.",more than 1 hour
same,flow rate of the femoral artery,"[1]; another test, 2 mg/kg i.v.",only increased greatly during the injection
same,pulse rate,"[1]; first and second tests, i.v.",the pulse rate is increased and this effect persists during successive injections
same,effect of additional injections on the flow rate,"[1]; first test, additional 0.5 and 5 mg/kg i.v.",no effect on the flow rate
same,increase in vertebral flow rate,"[1]; second test, beginning of perfusion",135%
same,increase in vertebral flow rate,"[1]; second test, end of perfusion",58%
same,effect of subsequent injections on the flow rate,"[1]; second test, subsequent 1 and 2 mg/kg i.v.",no effect on the flow rate
same,dilation of arteries,[1]; summary,can dilate either the vertebral artery or the femoral artery or both
same,hypotensive effect,"[1]; summary, higher dose","at a higher dose, it is hypotensive"
same,tachycardiac properties,"[1]; summary, low doses",possesses tachycardiac properties at low doses
same,femoral flow rate,[1]; [6],"is increased very much by the first injection, decreases during the subsequent injections"
same,flow rate of the vertebral artery,[1]; [6],increases at each of the injections up to the third
same,decrease in flow rate of the mesenteric artery,"[1]; third test, 0.5, 1, 2 and 4 mg/kg i.v., at each injection",25%
same,results in clinical studies in man,man; tablets 50 mg or injectable ampoules 10 mg,good results
same,LD50,[2],97 ± 2 mg/kg
same,NOAEL,[2],90 mg/kg
same,effect of the stimulation of the peripheral vagus,[3],does not alter
same,effects of the injection of acetylcholine,[3],does not alter
same,effects of the injection of isoprenalin,[3],does not alter
same,effect on injection into the femoral artery,femoral artery; doses of less than 100 μg/kg,no effect
same,increase in flow rate of the femoral artery,femoral artery; 1 mg/kg,34%
same,increase in flow rate of the femoral artery,femoral artery; 10 mg/kg,90%
same,increase in flow rate of the femoral artery,femoral artery; 20 mg/kg,67%
same,effect on the arterial pressure AP,"femoral artery; injection into femoral artery, 1, 10, 20 mg/kg",no effect
"OCC(O)CN1CCN(CC2COc3ccccc3O2)CC1 (stereo not shown) [Example 3, 1-[2-(1,4-Benzodioxanyl)-methyl]-4-(2,3-dihydroxypropyl)-piperazine dihydrochloride]",hypertensive effect of adrenalin,adrenergic receptors; 10 mg/kg intraduodenally,reversal of the hypertensive effect of adrenalin
same,α-blocking / α-lytic action,adrenergic receptors,α-blocking agent
same,AP,"[1]; i.v., 1 mg to 13 mg/kg",little effect on the AP or a slight hypotension
same,cardiac output,"[1]; i.v., 1 mg to 13 mg/kg",scarcely changed
same,differential AP,"[1]; i.v., 1 mg to 13 mg/kg",An increase in the differential AP
same,dp/dt,"[1]; i.v., 1 mg to 13 mg/kg",an increase in dp/dt
same,effect on the vertebral flow rate,"[1]; i.v., 1 mg to 13 mg/kg",no effect on the vertebral flow rate
same,ejection time,"[1]; i.v., 1 mg to 13 mg/kg",shortening of the ejection time
same,rise in the pulse rate,"[1]; i.v., 1 mg to 13 mg/kg",≤ 25%
same,results in man in vascular complaints,"man; tablets containing 20 mg, 2 to 3 per day",good results in vascular complaints
same,LD50,[2],260 ± 11 mg/kg
same,NOAEL,[2],> 170 mg/kg
same,cardiovascular variations after intraduodenal administration,intestinal barrier; 10 and 50 mg/kg intraduodenally,the variations described after intravenous injection are found again
same,passage through the intestinal barrier,"intestinal barrier; intraduodenal, dihydrochloride",passes easily through the intestinal barrier
"CC(C)(C)c1ccc2c(c1)OCC(CN1CCN(CCO)CC1)O2 (stereo not shown) [Example 5, 1-[2-(6- or 7-{tertiarybutyl}-1,4-benzodioxanyl)-methyl]-4-(2-hydroxyethyl)-piperazine dihydrochloride]","vertebral flow rate, local injection",vertebral artery; [7],"increases both these flow rates in proportion to the doses, but with a preference for the femoral flow rate"
same,dose dependence of femoral vasodilating action,"[1]; 2 dogs, i.v.",not proportional to the dose
same,dose from which femoral vasodilating action is maximum,"[1]; 2 dogs, i.v.",3.5 mg/kg
same,vertebral dilating action,"[1]; 2 dogs, i.v.",no vertebral dilating action
same,bradycardia,"[1]; 2 dogs, i.v., 15 mg/kg (last dose)",a bradycardia
same,"femoral vasodilating action, maximum","[1]; 2 dogs, i.v., from 3.5 mg/kg, increase (+)",60%
same,effect on the AP,"[1]; 2 dogs, i.v., up to 15 mg/kg",no effect on the AP
same,vasodilating effect,[1]; summary,exclusively peripheral and very moderate vasodilating effect
same,LD50,[2],140 ± 8 mg/kg
same,NOAEL,[2],100 mg/kg
same,minimal effective dose,"intestinal barrier; Canis lupus familiaris, intraduodenal, read-out: dose from which the pulse rate decreases, intraduodenally",7 mg/kg
same,vasodilating effect,"intestinal barrier; intraduodenally, successively 3.5, 7, 15 and 35 mg/kg",no vasodilating effect
same,"femoral flow rate, local injection",femoral artery; [7],"increases both these flow rates in proportion to the doses, but with a preference for the femoral flow rate"
same,analgesic activity,[4],analgesic activity of the morphine type
"CCC(=O)OCCN1CCN(CC2COc3ccccc3O2)CC1 (stereo not shown) [Example 6, 1-[2-(1,4-Benzodioxanyl)-methyl]-4-[2-(propionyloxy)-ethyl]-piperazine dihydrochloride]",α-blocking / α-lytic action,adrenergic receptors,α-blocking product
same,dose from which the product is α-blocking (adrenolytic),adrenergic receptors; dogs,5 mg/kg
same,femoral flow rate,[1]; [8],increased in the tests wherein an increase in the pulse rate is observed
same,intraventricular pressure,[1]; [8],decreased
same,pulse rate,[1]; [8],either is not altered (2 tests) or is increased
same,ratio dp/dt,[1]; [8],decreased
same,hypotensive effect,"[1]; 4 anaesthetised dogs, 2.5, 5 and 10 mg/kg i.v. over 5 minutes",A hypotensive effect proportional to the dose
same,time in which the femoral flow rate effect disappears,"[1]; 4 anaesthetised dogs, i.v.",15 min
same,vertebral flow rate,"[1]; 4 anaesthetised dogs, i.v.",only increases in one of the two tests wherein the pulse rate was increased
same,"effect on femoral flow rate, duration and reproducibility",[1]; conclusion,of short duration and is not reproducible
same,LD50,[2],109 ± 9 mg/kg
same,activity on intraduodenal administration,intestinal barrier; 10 mg/kg intraduodenally,the activity is found again
same,passage through the intestinal barrier,intestinal barrier; intraduodenal,passes through the intestinal barrier
same,mechanism of the vasodilating effect,femoral artery; conclusion,exclusively an alphalytic mechanism
same,vasodilating effect at higher doses,"femoral artery; femoral intra-arterial, up to and including 10 mg, dihydrochloride",do not produce a greater vasodilation; also recorded: maximal from the very start and cannot be increased by higher doses
same,dose from which flow rate is increased by 200%,femoral artery; injected directly into the femoral artery,10 µg
"CC(=O)OCCN1CCN(CC2COc3ccccc3O2)CC1 (stereo not shown) [Example 7, 1-[2-(1,4-Benzodioxanyl)-methyl]-4-[2-(acetyloxy)-ethyl]-piperazine dihydrochloride]",α-blocking / α-lytic action,adrenergic receptors,α-lytic
same,reversal of the hypertension due to adrenalin,"adrenergic receptors; from 2.5 mg/kg i.v., dogs",reversal of the hypertension due to adrenalin
same,dose from which the product is α-blocking (adrenolytic),adrenergic receptors; dogs,2.5 mg/kg
same,hypotension,"[1]; from 2.5 mg/kg i.v., both dogs",a hypotension
same,left ventricular pressure,"[1]; from 2.5 mg/kg i.v., both dogs",a decrease in the left ventricular pressure
same,pulse rate,"[1]; from 2.5 mg/kg i.v., both dogs",does not vary markedly
same,ratio dp/dt,"[1]; from 2.5 mg/kg i.v., both dogs",decrease
same,systolic ejection time,"[1]; from 2.5 mg/kg i.v., both dogs",decrease
same,LD50,[2],86 ± 1 mg/kg
same,NOAEL,[2],80 mg/kg
"c1cnc(N2CCN(CC3COc4ccccc4O3)CC2)nc1 (stereo not shown) [Example 8, 1-[2-(1,4-Benzodioxanyl)-methyl]-4-(2-pyrimidinyl)-piperazine dihydrochloride]",α-blocking / α-lytic action,adrenergic receptors,α-blocking action
same,hypertensive effect of adrenalin,adrenergic receptors; dogs anaesthetised by Nembutal,the hypertensive effect of adrenalin is reversed
same,decrease in the vertebral flow rate,[1]; [9],19%
same,effect on the mesenteric flow rate,[1]; [9],practically no effect
same,increase in the differential arterial pressure,[1]; [9],50%
same,tachycardia,"[1]; anaesthetised dogs (Nembutal), 2.5 mg/kg i.v. over 5 minutes, increase (+)",19%
same,femoral vasodilating effect,"[1]; anaesthetised dogs (Nembutal), 2.5 mg/kg i.v. over 5 minutes, slight, increase (+)",19%
same,passage into the general circulation,[5]; 10 mg/kg,the product passes into the general circulation
same,duration of rise in the flow rates,"[5]; orally, 1 to 10 mg/kg",30 min
same,rise in the femoral flow rate,"[5]; orally, 1 to 10 mg/kg",200%
same,rise in the vertebral flow rate,"[5]; orally, 1 to 10 mg/kg",60%
same,flow rate of the femoral artery,"[5]; orally, less than 100 μg/kg",does not alter
same,flow rate of the vertebral artery,"[5]; orally, less than 100 μg/kg",does not alter
same,LD50,[2],145 ± 10 mg/kg
